In patent publication US12617779B2, “Self degradation-type CDK9 inhibitor prodrug and liposome encapsulating same” (Sumitomo Pharma Co., Ltd., priority 2021, dated 2026):
Where a name gives a salt, the structure may show the parent alone.

What was measured:
[1] = Liposome encapsulation test, remote loading method (Experimental Example 4); type: physicochemical; details: for Encapsulated compound content per 50 μmol of lipid / Encapsulation efficiency / Encapsulation rate: Compound concentration when encapsulated 10 mg/mL; for encapsulation rate, encapsulation efficiency and encapsulated compound content per 50 μmol of lipid: remote loading into liposomes;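 as to Encapsulation efficiency: encapsulated compound as percent of compound amount introduced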
Protocol: For Example 1, Example 2, Example 3, Example 4, Example 5, Example 6, Example 7, Example 8, Example 9, Example 10, Example 11, Example 12, Example 13, Example 14, Example 15, Example 16, Example 17 and Alvocidib, an encapsulation test in liposomes was performed using a remote loading method.
<Liposome Encapsulation Test of Example 1, Example 2, Example 5, Example 6, Example 9, Example 10, Example 11, Example 12, Example 13, Example 14, Example 15, and Example 16>
(§1) Hydrogenated soybean phosphatidylcholine (COATSOME NC-21E, manufactured by NOF CORPORATION, 7.77 g), cholesterol (manufactured by Sigma, 2.78 g) and distearoylphosphatidylethanolamine-methoxypolyethylene glycol 2000 (SUNBRIGHT DSPE-020CN, manufactured by NOF CORPORATION, 2.47 g) were dissolved in tert-butyl alcohol (720 mL) warmed to 65° C. The solution was placed in an eggplant flask and frozen in a dry ice-acetone bath, and then the tert-butyl alcohol was removed by evaporation under reduced pressure to give a lipid mixture.
To the above lipid mixture was added a 250 mM ammonium sulfate solution (240 mL), and the mixture was warmed to 65° C., and dispersed by a homogenizer (ULTRA-TURRAX, manufactured by IKA) to give a crude liposome dispersion. Then, the crude liposome dispersion was dispersed by a high pressure homogenizer (Nano-Mizer NM2, manufactured by YOSHIDA KIKAI CO., LTD.) at a pressure of 100 MPa to give liposomes with an average particle size (Z-average) of about 80 nm. The liposome outer solution was replaced with 10 mM L-histidine/10% sucrose solution (pH 6.5) using a dialysis cassette (Slide-A-Lyzer G2 Dialysis Cassettes 20K MWCO, manufactured by Thermo Scientific) to give an empty liposome solution. The solution was filtered through a 0.22 μm membrane filter, and a 10 mM L-histidine/10% sucrose solution (pH 6.5) was added thereto to adjust the total lipid concentration to 50 mM (50 μmol/mL). The lipid concentration was determined by quantitatively analyzing cholesterol using HPLC and calculating the total lipid concentration from the lipid mixing ratio. The amount for the above adjustment was increased or decreased as appropriate.
The compound (10 mg) was weighed, and the empty liposome solution (1 mL) with a total lipid concentration of 50 mM was added thereto. The solution was adjusted to pH 5 to 6 with 1 mol/L hydrochloric acid or 1 mol/L aqueous sodium hydroxide solution as necessary, warmed in a 65° C. water bath for 2 to 3 minutes, and ice-cooled. The mixture was centrifuged at 15,000×g for 5 minutes to precipitate and remove insoluble substances.
The liposome solution (100 μL) after removing insoluble substances was taken on an ultrafiltration filter (Amicon Ultra, 100K, 0.5 mL, manufactured by Merck) and centrifuged at 4° C., 15,000×g for 10 minutes. The compound concentrations in the liposome solution after removing insoluble substances and in the filtrate after ultrafiltration were determined by HPLC, and the encapsulation rate, encapsulation efficiency, and encapsulated compound content per 50 μmol of lipid were calculated by the following formula.
The measurement conditions for HPLC are as follows.
An empty liposome solution with a total lipid concentration of 75 mM was prepared by the same procedure as for the above example compound group. Each compound was weighed, and the empty liposome solution with a total lipid concentration of 75 mM was added thereto such that the compound concentration became 15 mg/mL. The solution was adjusted to pH 5 to 6 with 1 mol/L hydrochloric acid or 1 mol/L aqueous sodium hydroxide solution, warmed in a 65° C. water bath for 3 minutes, and ice-cooled. Hereafter, the encapsulation rate and encapsulation efficiency were calculated by the same procedure as for the above example compound group. The encapsulated compound content per 50 μmol of lipid was calculated by the following formula.
[formula] <Liposome Encapsulation Test of Example 7, Example 8 and Example 17> […]

[2] = Pharmacokinetic test, intravenous solution and liposome formulations in mice (Experimental Example 6); type: in vivo; details: female BALB/c mice
Protocol: This was used as a solution formulation.
This was used as a liposome formulation.
as §1, with “3.238” for “7.77”, “1.160” for “2.78”, “1,2-disteroyl-rac-glycero-3-methylpolyoxyethylen” for “distearoylphosphatidylethanolamine-methoxypolyethylene glycol”, “GS-020,” for “DSPE-020CN,”, “0.983” for “2.47”, “(300” for “(720”
To the above lipid mixture was added to a 250 mM ammonium sulfate solution (100 mL), and the mixture was warmed to 65° C., and dispersed by a homogenizer (ULTRA-TURRAX, manufactured by IKA) to give a crude liposome dispersion. […] The solution was filtered through a 0.22 μm membrane filter to adjust the total lipid concentration to 75 mM (75 μmol/mL). […] The solution was adjusted to pH 5 to 6 with 1 mol/L aqueous sodium hydroxide solution, warmed in a 65° C. water bath for 3 minutes, and ice-cooled. The liposome outer solution was replaced with 10 mM tartrate buffer solution/10% sucrose solution (pH 4) using a dialysis cassette (Slide-A-Lyzer G2 Dialysis Cassettes 20K MWCO, manufactured by Thermo Scientific), followed by filtration through a 0.22 μm membrane filter to adjust the concentration.
The solution formulation or liposome formulation was instantly administered intravenously to 7-week-old female BALB/c mice, and the blood was collected over time from the jugular vein without anesthesia up to 24 hours after administration for the solution formulation administration group and up to 72 hours after administration for the liposome formulation administration group. […] The plasma sample was centrifuged, and the concentrations of the test compound and Alvocidib in the obtained supernatant were determined by LC-MS/MS.

| Compound | Encapsulated compound content per 50 μmol of lipid [1] [mg] | Encapsulation efficiency [1] [%] | Encapsulation rate [1] [%] | encapsulation rate, encapsulation efficiency and encapsulated compound content per 50 μmol of lipid [1] | Blood retention of liposome formulation compared with the corresponding solution formulation [2] |
| --- | --- | --- | --- | --- | --- |
| CCN(CC1CCCCN1)C(=O)Oc1cc(O)c2c(=O)cc(-c3ccccc3Cl)oc2c1[C@H]1CCN(C)C[C@H]1O (stereo partly drawn) [Example 7, 2-(2-chlorophenyl)-5-hydroxy-8-[(3S,4R)-3-hydroxy-1-methylpiperidin-4-yl]-4-oxo-4H-1-benzopyran-7-yl ethyl[(piperidin-2-yl)methyl]carbamate dihydrochloride] | 7.3 | 72.8 | 81.1 | high | – |
| CCCN(CC1CCCCN1)C(=O)Oc1cc(O)c2c(=O)cc(-c3ccccc3Cl)oc2c1[C@H]1CCN(C)C[C@H]1O (stereo partly drawn) [Example 9, 2-(2-chlorophenyl)-5-hydroxy-8-[(3S,4R)-3-hydroxy-1-methylpiperidin-4-yl]-4-oxo-4H-1-benzopyran-7-yl [(piperidin-2-yl)methyl]propylcarbamate] | 7.2 | 72.1 | 78.5 | high | – |
| CCCN(C[C@@H]1CCCCN1)C(=O)Oc1cc(O)c2c(=O)cc(-c3ccccc3Cl)oc2c1[C@H]1CCN(C)C[C@H]1O [Example 5, 2-(2-chlorophenyl)-5-hydroxy-8-[(3S,4R)-3-hydroxy-1-methylpiperidin-4-yl]-4-oxo-4H-1-benzopyran-7-yl {[(2S)-piperidin-2-yl]methyl}propylcarbamate] | 7.2 | 71.6 | 75.7 | high | higher blood retention |
| CCN(C[C@H]1CCCCN1)C(=O)Oc1cc(O)c2c(=O)cc(-c3ccccc3Cl)oc2c1[C@H]1CCN(C)C[C@H]1O [Example 2, 2-(2-chlorophenyl)-5-hydroxy-8-[(3S,4R)-3-hydroxy-1-methylpiperidin-4-yl]-4-oxo-4H-1-benzopyran-7-yl ethyl{[(2R)-piperidin-2-yl]methyl}carbamate] | 7.1 | 71.1 | 81.1 | high | higher blood retention |
| COCCN(CC1CCCCN1)C(=O)Oc1cc(O)c2c(=O)cc(-c3ccccc3Cl)oc2c1[C@H]1CCN(C)C[C@H]1O (stereo partly drawn) [Example 12, 2-(2-chlorophenyl)-5-hydroxy-8-[(3S,4R)-3-hydroxy-1-methylpiperidin-4-yl]-4-oxo-4H-1-benzopyran-7-yl (2-methoxyethyl) [(piperidin-2-yl)methyl]carbamate] | 3.6 | 36.2 | 35.8 | – | – |
| CCN(CCC1CCCCN1)C(=O)Oc1cc(O)c2c(=O)cc(-c3ccccc3Cl)oc2c1[C@H]1CCN(C)C[C@H]1O (stereo partly drawn) [Example 16, 2-(2-chlorophenyl)-5-hydroxy-8-[(3S,4R)-3-hydroxy-1-methylpiperidin-4-yl]-4-oxo-4H-1-benzopyran-7-yl ethyl[2-(piperidin-2-yl)ethyl]carbamate] | 2.2 | 21.7 | 20.7 | – | – |
| CC(C)N(CC1CCCCN1)C(=O)Oc1cc(O)c2c(=O)cc(-c3ccccc3Cl)oc2c1[C@H]1CCN(C)C[C@H]1O (stereo partly drawn) [Example 10, 2-(2-chlorophenyl)-5-hydroxy-8-[(3S,4R)-3-hydroxy-1-methylpiperidin-4-yl]-4-oxo-4H-1-benzopyran-7-yl [(piperidin-2-yl)methyl]propan-2-ylcarbamate] | 2.3 | 23.0 | 22.8 | – | – |
| CN1CC[C@H](c2c(OC(=O)N(CCC(F)(F)F)CC3CCCCN3)cc(O)c3c(=O)cc(-c4ccccc4Cl)oc23)[C@H](O)C1 (stereo partly drawn) [Example 13, 2-(2-chlorophenyl)-5-hydroxy-8-[(3S,4R)-3-hydroxy-1-methylpiperidin-4-yl]-4-oxo-4H-1-benzopyran-7-yl [(piperidin-2-yl)methyl](3,3,3-trifluoropropyl)carbamate] | 3.5 | 34.6 | 35.2 | – | – |
| CN1CC[C@H](c2c(OC(=O)N(C)CC3CCCCN3)cc(O)c3c(=O)cc(-c4ccccc4Cl)oc23)[C@H](O)C1 (stereo partly drawn) [Example 8, 2-(2-chlorophenyl)-5-hydroxy-8-[(3S,4R)-3-hydroxy-1-methylpiperidin-4-yl]-4-oxo-4H-1-benzopyran-7-yl methyl[(piperidin-2-yl)methyl]carbamate] | 6.1 | 61.1 | 60.6 | high | – |
| CN1CC[C@H](c2c(OC(=O)N(CCCC(F)(F)F)CC3CCCCN3)cc(O)c3c(=O)cc(-c4ccccc4Cl)oc23)[C@H](O)C1 (stereo partly drawn) [Example 14, 2-(2-chlorophenyl)-5-hydroxy-8-[(3S,4R)-3-hydroxy-1-methylpiperidin-4-yl]-4-oxo-4H-1-benzopyran-7-yl [(piperidin-2-yl)methyl](4,4,4-trifluorobutyl)carbamate] | 2.8 | 28.4 | 26.6 | – | – |
| CN1CC[C@H](c2c(OC(=O)N(Cc3ccccc3)CC3CCCCN3)cc(O)c3c(=O)cc(-c4ccccc4Cl)oc23)[C@H](O)C1 (stereo partly drawn) [Example 15, 2-(2-chlorophenyl)-5-hydroxy-8-[(3S,4R)-3-hydroxy-1-methylpiperidin-4-yl]-4-oxo-4H-1-benzopyran-7-yl benzyl [(piperidin-2-yl)methyl]carbamate] | 2.2 | 22.2 | 23.6 | – | – |
